# Values joined by “and” are separate entries in the source; they are usually repeats but may differ in a detail not shown here. Identical values can stand only once.
# How the values were obtained:
# [1] = tested on: CHO cell line that expresses an antibody; experiment: Fed-batch experiment with the substances according to the invention (Example 2, Table 2); type: cell-based, Chinese hamster; design: Viabil.: concentration or dose not given beside the values
# Source text: (§1) Feed took place at regular intervals.
# [2] = tested on: CHO cell line that expresses an antibody; experiment: Batch experiment with the substances according to the invention (Example 1); type: cell-based, Chinese hamster; conditions: batch mode, substance 0.5-1 g/l, basal medium glucose 4.7 g/l, glutamine […]
# Description: Cells were stored in the gas phase of liquid nitrogen. One to two ampoules were thawed in nutrient medium preheated to 37° C. and transferred to spinner bottles, shaking flasks or T-bottles. In the first few days of cultivation the medium was changed, depending on the clone.
# Depending on the clone, cells were split either every second day or every third day or after two and three days alternately into new medium, i.e. a portion of the cell suspension was removed from culture and a smaller portion of the cell suspension was reused as inoculum for the next culture. This inoculum was made up with fresh prewarmed nutrient medium. Cells were incubated at 37° C. in an incubator with a CO2 atmosphere. An alternative for incubating cells was cultivation in an incubation chamber at 37° C., in this way cells were held in culture for several passages. A passage means a cultivation time of two to three days. At various points of time, cell suspension was taken from strain maintenance and used as inoculum for experiments. The experiments were carried out in various cultivation systems, for example in spinner bottles, T-bottles, shaking flasks, culture tubes or in controlled bioreactors.
# as §1
compound,measurement,setting,value
O=C(O)CCCCC(=O)O [Adipic acid],Total Cell Density TCD,"[1]; day 0, fed-batch",1.5 E5/ml
same,Viabil.,"[1]; day 0, fed-batch",91%
same,Viable Cell Density (VCD),"[1]; day 0, fed-batch",1.37 E5/ml
same,Total Cell Density TCD,"[1]; day 2, fed-batch",4.4 E5/ml
same,Viabil.,"[1]; day 2, fed-batch",98%
same,Viable Cell Density (VCD),"[1]; day 2, fed-batch",4.3 E5/ml
same,Total Cell Density TCD,"[1]; day 5, fed-batch",12 E5/ml and 11.8 E5/ml
same,Viabil.,"[1]; day 5, fed-batch",98% and 95%
same,Viable Cell Density (VCD),"[1]; day 5, fed-batch",11.7 E5/ml and 11.2 E5/ml
same,Total Cell Density TCD,"[1]; day 8, fed-batch",40 E5/ml and 36.3 E5/ml
same,Viabil.,"[1]; day 8, fed-batch",91% and 92%
same,Gln,[2]; day 0,1.53 mM
same,Glucose,[2]; day 0,4.69 g/L
same,Lactate,[2]; day 0,0 g/L
same,NH4,[2]; day 0,1.22 mM
same,Specific Glutamin consumption (Gln/VCD),[2]; day 0,1.49
same,Specific ammonia production (NH4/VCD),[2]; day 0,1.18
same,Specific glucose consumption (Gluc/VCD),[2]; day 0,4.55
same,Specific lactate production (Lac/VCD),[2]; day 0,0.00
same,Total Cell Density TCD,[2]; day 0,1.07 E5/ml
same,Viabil.,[2]; day 0,96%
same,Viable Cell Density (VCD),[2]; day 0,1.03 E5/ml
same,Gln,[2]; day 3,0.86 mM
same,Glucose,[2]; day 3,4.28 g/L
same,Lactate,[2]; day 3,0.62 g/L
same,NH4,[2]; day 3,1.81 mM
same,Specific Glutamin consumption (Gln/VCD),[2]; day 3,0.12
same,Specific ammonia production (NH4/VCD),[2]; day 3,0.25
same,Specific glucose consumption (Gluc/VCD),[2]; day 3,0.60
same,Specific lactate production (Lac/VCD),[2]; day 3,0.09
same,Total Cell Density TCD,[2]; day 3,7.2 E5/ml
same,Viabil.,[2]; day 3,99%
same,Viable Cell Density (VCD),[2]; day 3,7.1 E5/ml
same,Gln,[2]; day 6,0.22 mM
same,Glucose,[2]; day 6,2.95 g/L
same,Lactate,[2]; day 6,0.93 g/L
same,NH4,[2]; day 6,2.67 mM
same,Specific Glutamin consumption (Gln/VCD),[2]; day 6,0.01
same,Specific ammonia production (NH4/VCD),[2]; day 6,0.07
same,Specific glucose consumption (Gluc/VCD),[2]; day 6,0.07
same,Specific lactate production (Lac/VCD),[2]; day 6,0.02
same,Total Cell Density TCD,[2]; day 6,41.6 E5/ml
same,Viabil.,[2]; day 6,98%
same,Viable Cell Density (VCD),[2]; day 6,40.6 E5/ml
same,Gln,[2]; day 8,0.32 mM
same,Glucose,[2]; day 8,1.94 g/L
same,Lactate,[2]; day 8,0.95 g/L
same,NH4,[2]; day 8,3 mM
same,Specific Glutamin consumption (Gln/VCD),[2]; day 8,0.02
same,Specific ammonia production (NH4/VCD),[2]; day 8,0.20
same,Specific glucose consumption (Gluc/VCD),[2]; day 8,0.13
same,Specific lactate production (Lac/VCD),[2]; day 8,0.06
same,Total Cell Density TCD,[2]; day 8,17.1 E5/ml
same,Viabil.,[2]; day 8,87%
same,Viable Cell Density (VCD),[2]; day 8,14.9 E5/ml
same,Gln,[2]; day 11,0.49 mM
same,Glucose,[2]; day 11,0.89 g/L
same,Lactate,[2]; day 11,1.28 g/L
same,NH4,[2]; day 11,3.38 mM
same,Specific Glutamin consumption (Gln/VCD),[2]; day 11,0.05
same,Specific ammonia production (NH4/VCD),[2]; day 11,0.32
same,Specific glucose consumption (Gluc/VCD),[2]; day 11,0.08
same,Specific lactate production (Lac/VCD),[2]; day 11,0.12
same,Total Cell Density TCD,[2]; day 11,23 E5/ml
same,Viabil.,[2]; day 11,46%
same,Viable Cell Density (VCD),[2]; day 11,10.6 E5/ml
O=C(O)CC(O)C(=O)O (stereo not drawn) [Malic acid],Total Cell Density TCD,"[1]; day 0, fed-batch",1.5 E5/ml
same,Viabil.,"[1]; day 0, fed-batch",91%
same,Viable Cell Density (VCD),"[1]; day 0, fed-batch",1.37 E5/ml
same,Total Cell Density TCD,"[1]; day 2, fed-batch",3.9 E5/ml and 4.2 E5/ml
same,Viabil.,"[1]; day 2, fed-batch",97% and 98%
same,Viable Cell Density (VCD),"[1]; day 2, fed-batch",3.8 E5/ml and 4.1 E5/ml
same,Total Cell Density TCD,"[1]; day 5, fed-batch",14.1 E5/ml and 12.8 E5/ml
same,Viabil.,"[1]; day 5, fed-batch",97% and 98%
same,Viable Cell Density (VCD),"[1]; day 5, fed-batch",13.7 E5/ml and 12.5 E5/ml
same,Total Cell Density TCD,"[1]; day 8, fed-batch",49.1 E5/ml and 45.3 E5/ml
same,Viabil.,"[1]; day 8, fed-batch",91% and 92%
same,Viable Cell Density (VCD),"[1]; day 8, fed-batch",44.9 E5/ml and 41.6 E5/ml
same,Gln,[2]; day 0,1.53 mM
same,Glucose,[2]; day 0,4.69 g/L
same,Lactate,[2]; day 0,0 g/L
same,NH4,[2]; day 0,1.22 mM
same,Specific Glutamin consumption (Gln/VCD),[2]; day 0,1.49
same,Specific ammonia production (NH4/VCD),[2]; day 0,1.18
same,Specific glucose consumption (Gluc/VCD),[2]; day 0,4.55
same,Specific lactate production (Lac/VCD),[2]; day 0,0.00
same,Total Cell Density TCD,[2]; day 0,1.07 E5/ml
same,Viabil.,[2]; day 0,96%
same,Viable Cell Density (VCD),[2]; day 0,1.03 E5/ml
same,Gln,[2]; day 3,0.67 mM
same,Glucose,[2]; day 3,3.9 g/L
same,Lactate,[2]; day 3,0.85 g/L
same,NH4,[2]; day 3,1.9 mM
same,Specific Glutamin consumption (Gln/VCD),[2]; day 3,0.09
same,Specific ammonia production (NH4/VCD),[2]; day 3,0.25
same,Specific glucose consumption (Gluc/VCD),[2]; day 3,0.51
same,Specific lactate production (Lac/VCD),[2]; day 3,0.11
same,Total Cell Density TCD,[2]; day 3,7.8 E5/ml
same,Viabil.,[2]; day 3,97%
same,Viable Cell Density (VCD),[2]; day 3,7.6 E5/ml
same,Gln,[2]; day 6,0.28 mM
same,Glucose,[2]; day 6,2.65 g/L
same,Lactate,[2]; day 6,1.14 g/L
same,NH4,[2]; day 6,2.42 mM
same,Specific Glutamin consumption (Gln/VCD),[2]; day 6,0.01
same,Specific ammonia production (NH4/VCD),[2]; day 6,0.06
same,Specific glucose consumption (Gluc/VCD),[2]; day 6,0.06
same,Specific lactate production (Lac/VCD),[2]; day 6,0.03
same,Total Cell Density TCD,[2]; day 6,43.4 E5/ml
same,Viabil.,[2]; day 6,97%
same,Viable Cell Density (VCD),[2]; day 6,42.2 E5/ml
same,Gln,[2]; day 8,0.37 mM
same,Glucose,[2]; day 8,1.76 g/L
same,Lactate,[2]; day 8,0.94 g/L
same,NH4,[2]; day 8,2.4 mM
same,Specific Glutamin consumption (Gln/VCD),[2]; day 8,0.02
same,Specific ammonia production (NH4/VCD),[2]; day 8,0.10
same,Specific glucose consumption (Gluc/VCD),[2]; day 8,0.08
same,Specific lactate production (Lac/VCD),[2]; day 8,0.04
same,Total Cell Density TCD,[2]; day 8,26.1 E5/ml
same,Viabil.,[2]; day 8,89%
same,Viable Cell Density (VCD),[2]; day 8,23.2 E5/ml
same,Gln,[2]; day 11,0.44 mM
same,Glucose,[2]; day 11,0.47 g/L
same,Lactate,[2]; day 11,1.2 g/L
same,NH4,[2]; day 11,2.75 mM
same,Specific Glutamin consumption (Gln/VCD),[2]; day 11,0.03
same,Specific ammonia production (NH4/VCD),[2]; day 11,0.16
same,Specific glucose consumption (Gluc/VCD),[2]; day 11,0.03
same,Specific lactate production (Lac/VCD),[2]; day 11,0.07
same,Total Cell Density TCD,[2]; day 11,28.5 E5/ml
same,Viabil.,[2]; day 11,61%
same,Viable Cell Density (VCD),[2]; day 11,17.5 E5/ml
NCCC[C@H](N)C(=O)O [Ornithine],Viabil.,"[1]; day 0, fed-batch",91%
same,Viabil.,"[1]; day 2, fed-batch",98% and 97%
same,Viabil.,"[1]; day 5, fed-batch",96%
same,Viabil.,"[1]; day 8, fed-batch",94%
same,Gln,[2]; day 0,1.53 mM
same,Glucose,[2]; day 0,4.69 g/L
same,Lactate,[2]; day 0,0 g/L
same,Specific Glutamin consumption (Gln/VCD),[2]; day 0,1.49
same,Specific ammonia production (NH4/VCD),[2]; day 0,1.18
same,Specific glucose consumption (Gluc/VCD),[2]; day 0,4.55
same,Specific lactate production (Lac/VCD),[2]; day 0,0.00
same,Viabil.,[2]; day 0,96%
same,Gln,[2]; day 3,0.92 mM
same,Glucose,[2]; day 3,4.24 g/L
same,Lactate,[2]; day 3,0.71 g/L
same,Specific Glutamin consumption (Gln/VCD),[2]; day 3,0.15
same,Specific ammonia production (NH4/VCD),[2]; day 3,0.29
same,Specific glucose consumption (Gluc/VCD),[2]; day 3,0.67
same,Specific lactate production (Lac/VCD),[2]; day 3,0.11
same,Viabil.,[2]; day 3,97%
same,Gln,[2]; day 6,0.11 mM
same,Glucose,[2]; day 6,2.7 g/L
same,Specific Glutamin consumption (Gln/VCD),[2]; day 6,0.00
same,Specific ammonia production (NH4/VCD),[2]; day 6,0.06
same,Specific glucose consumption (Gluc/VCD),[2]; day 6,0.06
same,Specific lactate production (Lac/VCD),[2]; day 6,0.02
same,Viabil.,[2]; day 6,98%
same,Gln,[2]; day 8,0.37 mM
same,Specific Glutamin consumption (Gln/VCD),[2]; day 8,0.02
same,Specific ammonia production (NH4/VCD),[2]; day 8,0.14
same,Specific glucose consumption (Gluc/VCD),[2]; day 8,0.09
same,Specific lactate production (Lac/VCD),[2]; day 8,0.05
same,Viabil.,[2]; day 8,89%
same,Gln,[2]; day 11,0.46 mM
same,Glucose,[2]; day 11,0.53 g/L
same,Lactate,[2]; day 11,1.26 g/L
same,Specific Glutamin consumption (Gln/VCD),[2]; day 11,0.03
same,Specific ammonia production (NH4/VCD),[2]; day 11,0.22
same,Specific glucose consumption (Gluc/VCD),[2]; day 11,0.04
same,Specific lactate production (Lac/VCD),[2]; day 11,0.09
same,Viabil.,[2]; day 11,60%

# Source: patent US8426202B2, “Cell culture medium” (Cellca GmbH, priority 2005, dated 2013)
